Measured values published in patent US8802720B2, “Acylamino-substituted fused cyclopentanecarboxylic acid derivatives and their use as pharmaceuticals” (SANOFI, priority 2008, dated 2014).

Molecular target: human Edg-2 receptor (LPA1 receptor) (Homo sapiens, UniProt Q92633)
Assay: Edg-2 receptor inhibition by FLIPR calcium fluorescence measurement (LPA-mediated calcium liberation)
Assay type: cell-based
Conditions: CHO cells stably overexpressing human Edg-2 receptor; LPA 18:1 100 nM; fluo-4 fluorescence; triplicate; read-out: Inhibitory concentrations IC50 for inhibition of the Edg-2 receptor
How it was run: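 CHO cells stably overexpressing human Edg-2 were fluo-4 loaded and pre-incubated ~5 min with compound (≤0.3% DMSO) in HBSS/HEPES/probenecid, pH 7.5. Then LPA 18:1 at 100 nM final was added. Peak calcium fluorescence over ~3 min, baseline-corrected versus DMSO, gave % inhibition in triplicate and IC50.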

Sequence of human Edg-2 receptor (LPA1 receptor) (Q92633 whole entry): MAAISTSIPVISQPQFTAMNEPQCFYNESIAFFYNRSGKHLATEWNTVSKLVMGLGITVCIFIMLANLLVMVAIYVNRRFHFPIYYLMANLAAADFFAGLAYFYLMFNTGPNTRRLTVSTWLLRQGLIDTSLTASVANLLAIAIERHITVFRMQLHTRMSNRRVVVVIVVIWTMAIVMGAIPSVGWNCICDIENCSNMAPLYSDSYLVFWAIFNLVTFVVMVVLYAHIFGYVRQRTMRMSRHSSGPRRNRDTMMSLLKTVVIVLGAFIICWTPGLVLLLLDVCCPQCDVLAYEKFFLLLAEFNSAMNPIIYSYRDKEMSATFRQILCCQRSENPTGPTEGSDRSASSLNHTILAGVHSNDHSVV

Compound	IC50 [nM]
COc1ccc(C(=O)NC2(C(=O)O)Cc3ccccc3C2)cc1-c1cc(C(F)(F)F)ccc1Cl [Example 289]	100 to 1000
COc1ccc(C(=O)NC2(C(=O)O)Cc3ccccc3C2)cc1NCCc1ccccc1 [Example 122, 2-[3-[2-phenyl-ethylamino)-4-methoxy-benzoylamino)-indane-2-carboxylic acid]	100 to 1000
COc1ccc(C(=O)NC2(C(=O)O)Cc3ccccc3C2)c(F)c1OCCc1cccc(C)c1 [Example 277, 2-[2-Fluoro-4-methoxy-3-(2-m-tolyl-ethoxy)-benzoylamino]-indane-2-carboxylic acid]	1000 to 30000
COCCOCCOc1cc(C(=O)NC2(C(=O)O)Cc3ccccc3C2)ccc1OC [Example 28]	1000 to 30000
CCOc1ccc2ccccc2c1-c1cc(C(=O)NC2(C(=O)O)Cc3ccccc3C2)ccc1OC [Example 331]	100 to 1000
COc1ccc(C(=O)NC2(C(=O)O)Cc3ccccc3C2)cc1OCc1nc2ccccc2n1C [Example 69]	1000 to 30000
N#Cc1ccc(C(=O)NC2(C(=O)O)Cc3ccccc3C2)cc1NCCc1ccccc1F [Example 175, 2-{4-Cyano-3-[2-(2-fluoro-phenyl)-ethylamino]-benzoylamino}-indane-2-carboxylic acid]	1000 to 30000
Cc1cccc(CCOc2cc(C(=O)NC3(C(=O)O)Cc4ccccc4C3)ccc2[S+](C)[O-])c1 (centres unmarked) [Example 5, 2-[4-Methanesulfinyl-3-(2-m-tolyl-ethoxy)-benzoylamino]-indane-2-carboxylic acid]	1000 to 30000
CNC(=O)c1cccc(-c2cc(C(=O)NC3(C(=O)O)Cc4ccccc4C3)ccc2OC)c1 [Example 323]	1000 to 30000
CCc1sc(C(=O)NC2(C(=O)O)Cc3ccccc3C2)nc1OCCc1cccc(C)c1 [Example 273, 2-{[5-Ethyl-4-(2-m-tolyl-ethoxy)-thiazole-2-carbonyl]-amino}-indane-2-carboxylic acid]	100 to 1000
COc1ccc(C(=O)NC2(C(=O)O)Cc3ccccc3C2)cc1OCc1csc2ccccc12 [Example 72]	1000 to 30000
COc1ccc(C(=O)NC2(C(=O)O)Cc3ccccc3C2)cc1OCCc1cccc(C(N)=O)c1 [Example 95, 2-{3-[2-(3-Carbamoyl-phenyl)-ethoxy]-4-methoxy-benzoylamino}-indane-2-carboxylic acid]	1000 to 30000
COc1ccc(C(=O)NC2(C(=O)O)Cc3cccnc3C2)cc1OCCc1cccc(C)c1 (centres unmarked) [Example 101, 6-[4-Methoxy-3-(2-m-tolyl-ethoxy)-benzoylamino]-6,7-dihydro-5H-[1]pyrindine-6-carboxylic acid]	1000 to 30000
COc1ccc(C(=O)NC2(C(=O)O)Cc3ccccc3C2)cc1OC/C=C/c1ccccc1 [Example 45]	1000 to 30000
COc1ccc(C(=O)NC2(C(=O)O)Cc3ccccc3C2)cc1OCC1CCC(C(=O)O)C1 (centres unmarked) [Example 78]	1000 to 30000
COc1ccc(C(=O)NC2(C(=O)O)Cc3ccccc3C2)cc1OC(C)Cc1ccccc1 (centres unmarked) [Example 142]	1000 to 30000
COc1ccc(C(=O)NC2(C(=O)O)Cc3ccccc3C2)cc1Oc1cccc(C)c1 [Example 239, 2-(4-Methoxy-3-m-tolyloxy-benzoylamino)-indane-2-carboxylic acid]	1000 to 30000
CCN(CC)CCCOc1cc(C(=O)NC2(C(=O)O)Cc3ccccc3C2)ccc1OC [Example 49]	1000 to 30000
CCS(=O)(=O)c1cccc(-c2cc(C(=O)NC3(C(=O)O)Cc4ccccc4C3)cc(F)c2OC)c1 [Example 357, 2-[(3′-Ethanesulfonyl-5-fluoro-6-methoxy-biphenyl-3-carbonyl)-amino]-indane-2-carboxylic acid]	< 100
Cc1cccc(CCOc2cc(C(=O)NC3(C(=O)O)Cc4ccccc4C3)ccc2NC(C)C)c1 [Example 166, 2-[4-Isopropylamino-3-(2-m-tolyl-ethoxy)-benzoylamino]-indane-2-carboxylic acid]	100 to 1000
COc1ccc(C(=O)NC2(C(=O)O)Cc3nccnc3C2)cc1OCCc1cccc(C)c1 [Example 207, 6-[4-Methoxy-3-(2-m-tolyl-ethoxy)-benzoylamino]-6,7-dihydro-5H-cyclopentapyrazine-6-carboxylic acid]	1000 to 30000
COc1ccc(C(=O)NC2(C(=O)O)Cc3cccc(Cl)c3C2)cc1OCCc1cccc(C)c1 (centres unmarked) [Example 217, 4-Chloro-2-[4-methoxy-3-(2-m-tolyl-ethoxy)-benzoylamino]-indane-2-carboxylic acid]	< 100

Now from value to compound:

IC50 [nM]	Compound
< 100	Cc1cccc(CCOc2cc(C(=O)NC3(C(=O)O)Cc4ccccc4C3)ccc2OC(C)C)c1 [Example 255, 2-[4-Isopropoxy-3-(2-m-tolyl-ethoxy)-benzoylamino]-indane-2-carboxylic acid]
< 100	COc1ccc(C(=O)NC2(C(=O)O)Cc3ccccc3C2O)cc1OCCc1cccc(C)c1 (single isomer, unassigned) [Example 220, 1-Hydroxy-2-[4-methoxy-3-(2-m-tolyl-ethoxy)-benzoylamino]-indane-2-carboxylic acid]
< 100	COc1ccc(C(=O)NC2(C(=O)O)Cc3ccccc3C2)cc1-c1cc(F)cc(C(F)(F)F)c1 [Example 337]
< 100	Cc1cccc(CCOc2cc(C(=O)NC3(C(=O)O)Cc4ccccc4C3)ccc2C#N)c1 [Example 168, 2-[4-Cyano-3-(2-m-tolyl-ethoxy)-benzoylamino]-indane-2-carboxylic acid]
< 100	COc1ccc(C(=O)NC2(C(=O)O)Cc3ccccc3C2)cc1OCCC1=CC[C@H]2C[C@@H]1C2(C)C [Example 81]
< 100	COc1ccc(C(=O)NC2(C(=O)O)Cc3ccccc3C2)cc1-c1cc(F)cc(Cl)c1 [Example 342]
< 100	CNc1ccc(C(=O)NC2(C(=O)O)Cc3ccccc3C2)cc1OCCc1cccc(C)c1 [Example 164, 2-[4-Methylamino-3-(2-m-tolyl-ethoxy)-benzoylamino]-indane-2-carboxylic acid]
< 100	COc1c(F)cc(C(=O)NC2(C(=O)O)Cc3ccccc3C2)cc1-c1cccc(C(C)C)c1 [Example 360, 2-[(5-fluoro-3′-isopropyl-6-methoxy-biphenyl-3-carbonyl)-amino]-indane-2-carboxylic acid]
< 100	COc1ccc(C(=O)NC2(C(=O)O)Cc3ccccc3C2)cc1OCCc1cc(C(F)(F)F)ccc1F [Example 154]
< 100	COc1ccc(C(=O)NC2(C(=O)O)Cc3ccccc3C2)cc1-c1cccc(C(F)(F)F)c1 [Example 200]
< 100	COc1ccc(F)cc1-c1cc(C(=O)NC2(C(=O)O)Cc3ccccc3C2)ccc1OC [Example 304]
< 100	COc1ccc(C(=O)NC2(C(=O)O)Cc3ccccc3C2)cc1SCCc1cccc(C)c1 [Example 180, 2-[4-Methoxy-3-(2-m-tolyl-ethylsulfanyl)-benzoylamino]-indane-2-carboxylic acid]
< 100	COc1ccc(C(=O)NC2(C(=O)O)Cc3ccccc3C2)cc1OCCc1cccc(C2CC2)c1 [Example 21, 2-{3-[2-(3-cyclopropyl-phenyl)-ethoxy]-4-methoxy-benzoylamino}-indane-2-carboxylic acid]
< 100	COc1ccc(C(=O)NC2(C(=O)O)Cc3ccccc3C2)cc1OCC(C)c1ccccc1 (centres unmarked) [Example 144]
< 100	CCSc1cccc(-c2cc(C(=O)NC3(C(=O)O)Cc4ccccc4C3)ccc2OC)c1 [Example 308]
< 100	COc1ccc(C(=O)NC2(C(=O)O)Cc3ccccc3C2)cc1-c1cccc(C(F)(F)F)c1F [Example 348]
